“And” between values parts separate entries of the source, which are not always exact repeats. Equal entries are not always repeated.
Test system: 3T3-L1 adipocytes
Test: [3H]-2-deoxy-glucose uptake by adipocytes
Format: cell-based, Murine
Method: To determine if one mechanism for glyceollins to improve the oral glucose challenge in a prediabetic model is by increasing the glucose uptake by fat, glyceollin pharmacology was studied in 3T3-L1 cells. Murine preadipocytes (Zen-Bio Inc.) were cultured using PM-1-L1 medium (Zen-Bio Inc.) containing Dulbecco's modified Eagle's medium (DMEM)/Ham's F-10 medium (1:1, v/v), HEPES 15 mM (pH 7.4), 10% (v/v) fetal bovine serum, penicillin (100 U/ml), streptomycin ([…]), and amphotericin B (0.25 μg/ml) in a humidified atmosphere (5% CO2/95% air). After 3-4 days, confluent cells were placed in differentiation medium (DM-2-L1, Zen-Bio Inc.) containing DMEM/Ham's F-10 medium (1:1, v/v), HEPES 15 mM (pH 7.4), 3% (v/v) fetal bovine serum, biotin (33 μM), pantothenate (17 μM), human insulin (100 nM), dexamethasone (1 μM), penicillin (100 U/ml), streptomycin (100 μg/ml), amphotericin B (0.25 μg/ml), isobutylmethylxanthine ([…]) and PPARγ agonist (10 μM) and further incubated in the humidified atmosphere for 3 days. […]
Adipocytes were rinsed in sterile, fresh KRH buffer (HEPES pH=7.4, 1 mM CaCl2, 1.2 mM MgSO4, 1 mM KH2PO4, 1.4 mM KCl, […], 130 mM NaCl), and then preincubated for 24 h in KRH buffer. […] The vials were mixed and counted for 10 min in an Applied Biosystems 1100 liquid scintillation counter using the factory preset window to detect tritium.

insulin was tested. Which EC50 (30 min exposure at 37° C., 0.3-300 nM, n=6, read-out: EC50 of insulin-mediated glucose uptake) did it give?
Its EC50 is 1.9 nM and 1.92 nM.

What about the “maximal stimulation of glucose uptake relative to basal” value (insulin 0.3 nM-300 nM) of the same substance?
The value was “about 3 times”.

Reference: patent publication US20140275233A1, “ACTIVATED SOY POD FIBER” (priority 2013, published 2014)
